“And” between values parts separate entries of the source, which are not always exact repeats. Equal entries are not always repeated.
Columns and labels:
Experiment in all cases: radiometric filter-binding kinase assay, Kinase HotSpot
Conditions in all cases: compound 0.5 µM; ATP 10 µM
[1] = molecular target: NEK11 (human) (UniProt Q8NG66)
[2] = molecular target: HCK (human) (UniProt P08631)
[3] = molecular target: PRKCZ (human) (UniProt Q05513)
[4] = molecular target: NEK1 (human) (UniProt Q96PY6)
[5] = molecular target: MAPK8 (human) (UniProt P45983)
[6] = molecular target: RPS6KA4 KD2 (human) (UniProt O75676)
[7] = molecular target: MAPK3 (human) (UniProt P27361)
[8] = molecular target: MAPKAPK5 (human) (UniProt Q8IW41)
[9] = molecular target: CDK2 CCNE1 (human) (UniProt P24941+P24864)
CDK2 CCNE1 (human), sequence (P24864 whole entry, looked up, other chains not shown): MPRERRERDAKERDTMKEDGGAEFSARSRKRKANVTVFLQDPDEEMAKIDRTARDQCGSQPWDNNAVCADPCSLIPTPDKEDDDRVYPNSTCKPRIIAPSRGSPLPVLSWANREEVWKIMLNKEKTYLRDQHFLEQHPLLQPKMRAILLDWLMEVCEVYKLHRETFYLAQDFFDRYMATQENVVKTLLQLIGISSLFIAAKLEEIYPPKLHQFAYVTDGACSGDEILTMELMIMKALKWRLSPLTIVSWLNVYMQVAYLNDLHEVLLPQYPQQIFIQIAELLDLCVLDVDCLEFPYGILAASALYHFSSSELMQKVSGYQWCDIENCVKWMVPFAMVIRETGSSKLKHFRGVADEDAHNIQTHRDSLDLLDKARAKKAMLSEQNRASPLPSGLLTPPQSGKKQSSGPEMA

[10] = molecular target: PBK (human) (UniProt Q96KB5)
PBK (human), sequence (Q96KB5 whole entry, looked up): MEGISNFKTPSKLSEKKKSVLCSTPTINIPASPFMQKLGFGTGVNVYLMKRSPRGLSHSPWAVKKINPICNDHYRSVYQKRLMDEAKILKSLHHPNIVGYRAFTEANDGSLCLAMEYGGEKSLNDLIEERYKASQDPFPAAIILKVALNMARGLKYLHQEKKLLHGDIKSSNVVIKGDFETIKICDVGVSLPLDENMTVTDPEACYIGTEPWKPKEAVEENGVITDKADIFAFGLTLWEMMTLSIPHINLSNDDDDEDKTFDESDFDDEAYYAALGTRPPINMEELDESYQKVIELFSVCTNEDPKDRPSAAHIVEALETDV

[11] = molecular target: CLK1 (human) (UniProt P49759)
[12] = molecular target: EPHA3 (human) (UniProt P29320)
EPHA3 (human), sequence (P29320 whole entry, looked up): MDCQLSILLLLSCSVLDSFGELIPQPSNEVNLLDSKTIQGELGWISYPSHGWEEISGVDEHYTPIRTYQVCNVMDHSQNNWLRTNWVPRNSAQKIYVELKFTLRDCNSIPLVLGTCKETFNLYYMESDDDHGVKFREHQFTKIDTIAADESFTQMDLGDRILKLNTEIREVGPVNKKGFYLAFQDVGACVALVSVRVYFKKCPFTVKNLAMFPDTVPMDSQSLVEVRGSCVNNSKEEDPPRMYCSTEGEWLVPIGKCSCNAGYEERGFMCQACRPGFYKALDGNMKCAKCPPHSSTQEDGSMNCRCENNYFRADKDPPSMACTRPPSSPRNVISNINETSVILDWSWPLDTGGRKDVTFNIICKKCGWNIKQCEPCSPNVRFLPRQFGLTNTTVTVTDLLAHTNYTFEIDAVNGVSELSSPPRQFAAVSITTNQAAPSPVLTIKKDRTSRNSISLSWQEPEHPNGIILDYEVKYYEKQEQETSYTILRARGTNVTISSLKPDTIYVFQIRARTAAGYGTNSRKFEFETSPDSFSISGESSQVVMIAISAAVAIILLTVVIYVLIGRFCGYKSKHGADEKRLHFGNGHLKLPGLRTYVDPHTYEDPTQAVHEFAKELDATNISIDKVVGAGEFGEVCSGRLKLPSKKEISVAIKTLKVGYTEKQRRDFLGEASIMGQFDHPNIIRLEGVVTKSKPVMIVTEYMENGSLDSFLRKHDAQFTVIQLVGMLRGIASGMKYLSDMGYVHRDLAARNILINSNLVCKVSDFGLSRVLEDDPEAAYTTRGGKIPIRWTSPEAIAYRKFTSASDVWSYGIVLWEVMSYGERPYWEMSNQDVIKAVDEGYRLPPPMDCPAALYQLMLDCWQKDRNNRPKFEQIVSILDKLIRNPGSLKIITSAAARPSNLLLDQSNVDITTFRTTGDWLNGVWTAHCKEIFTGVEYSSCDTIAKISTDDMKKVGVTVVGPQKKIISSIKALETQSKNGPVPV

[13] = molecular target: PTK2B (human) (UniProt Q14289)
[14] = molecular target: FYN (human) (UniProt P06241)
[15] = molecular target: NTRK3 (human) (UniProt Q16288)
[16] = molecular target: AURKA (human) (UniProt O14965)
[17] = molecular target: GRK4 (human) (UniProt P32298)
[18] = molecular target: CAMK4 (human) (UniProt Q16566)
[19] = molecular target: PAK3 (human) (UniProt O75914)
[20] = molecular target: EPHA1 (human) (UniProt P21709)
[21] = molecular target: CDC42BPA (human) (UniProt Q5VT25)
CDC42BPA (human), sequence (Q5VT25 whole entry, looked up): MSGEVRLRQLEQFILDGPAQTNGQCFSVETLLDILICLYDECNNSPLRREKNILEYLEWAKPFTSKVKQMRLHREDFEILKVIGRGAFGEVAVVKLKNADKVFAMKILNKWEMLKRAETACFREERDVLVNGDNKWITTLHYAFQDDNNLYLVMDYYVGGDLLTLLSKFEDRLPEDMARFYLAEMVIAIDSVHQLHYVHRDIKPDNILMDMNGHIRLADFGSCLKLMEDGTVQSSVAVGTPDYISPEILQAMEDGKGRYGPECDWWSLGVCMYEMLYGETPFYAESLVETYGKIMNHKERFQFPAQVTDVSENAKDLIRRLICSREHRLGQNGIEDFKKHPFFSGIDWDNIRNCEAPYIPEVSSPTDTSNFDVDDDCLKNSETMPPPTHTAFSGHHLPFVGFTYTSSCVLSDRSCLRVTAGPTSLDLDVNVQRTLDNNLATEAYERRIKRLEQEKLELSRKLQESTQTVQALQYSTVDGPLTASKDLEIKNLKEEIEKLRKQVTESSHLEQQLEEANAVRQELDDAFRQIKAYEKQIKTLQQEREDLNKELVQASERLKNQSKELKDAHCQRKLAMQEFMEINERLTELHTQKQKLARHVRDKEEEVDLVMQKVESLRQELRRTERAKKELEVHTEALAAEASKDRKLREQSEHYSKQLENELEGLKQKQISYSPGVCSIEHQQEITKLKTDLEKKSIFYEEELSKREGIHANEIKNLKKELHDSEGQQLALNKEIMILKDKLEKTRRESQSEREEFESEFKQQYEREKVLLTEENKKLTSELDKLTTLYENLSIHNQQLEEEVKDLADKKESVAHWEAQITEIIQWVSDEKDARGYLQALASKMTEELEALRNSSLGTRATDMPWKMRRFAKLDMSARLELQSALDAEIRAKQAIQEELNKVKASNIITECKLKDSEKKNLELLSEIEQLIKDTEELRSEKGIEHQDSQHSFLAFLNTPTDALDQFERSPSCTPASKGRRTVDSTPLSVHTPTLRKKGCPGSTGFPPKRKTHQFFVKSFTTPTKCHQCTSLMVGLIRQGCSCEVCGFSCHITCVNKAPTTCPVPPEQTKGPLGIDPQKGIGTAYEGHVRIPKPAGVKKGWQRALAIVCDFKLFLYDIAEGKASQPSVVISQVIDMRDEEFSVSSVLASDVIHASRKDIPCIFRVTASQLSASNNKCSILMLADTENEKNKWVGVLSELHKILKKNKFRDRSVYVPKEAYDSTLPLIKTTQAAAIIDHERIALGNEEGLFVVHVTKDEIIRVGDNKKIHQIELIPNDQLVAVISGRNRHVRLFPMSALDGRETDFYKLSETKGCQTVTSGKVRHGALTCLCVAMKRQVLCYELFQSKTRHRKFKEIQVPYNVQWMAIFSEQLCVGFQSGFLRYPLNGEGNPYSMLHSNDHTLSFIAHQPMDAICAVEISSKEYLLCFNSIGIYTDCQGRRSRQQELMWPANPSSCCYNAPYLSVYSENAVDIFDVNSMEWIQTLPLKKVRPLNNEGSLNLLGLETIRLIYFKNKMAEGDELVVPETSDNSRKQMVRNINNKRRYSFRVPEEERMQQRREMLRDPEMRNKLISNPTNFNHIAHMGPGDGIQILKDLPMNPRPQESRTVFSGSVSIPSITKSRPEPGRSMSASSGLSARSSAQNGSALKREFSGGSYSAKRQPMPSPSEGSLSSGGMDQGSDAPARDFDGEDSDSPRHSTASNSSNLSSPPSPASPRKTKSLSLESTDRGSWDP

[22] = molecular target: MAP3K3 (human) (UniProt Q99759)
[23] = molecular target: TBK1 (human) (UniProt Q9UHD2)
[24] = molecular target: DCLK2 (human) (UniProt Q8N568)
[25] = molecular target: YES1 (human) (UniProt P07947)
[26] = molecular target: PRKCH (human) (UniProt P24723)
[27] = molecular target: CDK6 CCND3 (human) (UniProt P30281+Q00534)
[28] = molecular target: FLT1 (human) (UniProt P17948)
[29] = molecular target: WNK2 (human) (UniProt Q9Y3S1)
[30] = molecular target: SIK2 (human) (UniProt Q9H0K1)
[31] = molecular target: LYN (human) (UniProt P07948)
LYN (human), sequence (P07948 whole entry, looked up): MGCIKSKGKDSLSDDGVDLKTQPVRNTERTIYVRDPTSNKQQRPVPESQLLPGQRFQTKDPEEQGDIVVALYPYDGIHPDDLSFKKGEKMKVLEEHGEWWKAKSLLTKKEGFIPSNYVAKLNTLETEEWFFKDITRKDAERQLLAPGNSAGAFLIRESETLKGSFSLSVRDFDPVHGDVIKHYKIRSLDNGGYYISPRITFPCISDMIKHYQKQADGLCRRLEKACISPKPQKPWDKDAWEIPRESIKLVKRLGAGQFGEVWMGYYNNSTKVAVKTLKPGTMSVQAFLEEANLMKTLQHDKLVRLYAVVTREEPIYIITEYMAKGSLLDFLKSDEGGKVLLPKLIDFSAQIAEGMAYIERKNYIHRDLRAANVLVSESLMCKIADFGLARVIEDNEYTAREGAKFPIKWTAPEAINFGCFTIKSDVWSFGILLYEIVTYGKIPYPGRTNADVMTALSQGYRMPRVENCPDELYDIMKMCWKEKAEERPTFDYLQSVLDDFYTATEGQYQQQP

[32] = molecular target: MARK2 (human) (UniProt Q7KZI7)
[33] = molecular target: PRKCA (human) (UniProt P17252)
[34] = molecular target: CSNK2A1 (human) (UniProt P68400)
[35] = molecular target: FGFR3 (human) (UniProt P22607)
[36] = molecular target: PRKCB2 (human) (UniProt P05771)
[37] = molecular target: DYRK1B (human) (UniProt Q9Y463)
[38] = molecular target: MET (human) (UniProt P08581)
[39] = molecular target: CAMKK2 (human) (UniProt Q96RR4)
[40] = molecular target: GRK7 (human) (UniProt Q8WTQ7)
[41] = molecular target: CHEK1 (human) (UniProt O14757)
CHEK1 (human), sequence (O14757 whole entry, looked up): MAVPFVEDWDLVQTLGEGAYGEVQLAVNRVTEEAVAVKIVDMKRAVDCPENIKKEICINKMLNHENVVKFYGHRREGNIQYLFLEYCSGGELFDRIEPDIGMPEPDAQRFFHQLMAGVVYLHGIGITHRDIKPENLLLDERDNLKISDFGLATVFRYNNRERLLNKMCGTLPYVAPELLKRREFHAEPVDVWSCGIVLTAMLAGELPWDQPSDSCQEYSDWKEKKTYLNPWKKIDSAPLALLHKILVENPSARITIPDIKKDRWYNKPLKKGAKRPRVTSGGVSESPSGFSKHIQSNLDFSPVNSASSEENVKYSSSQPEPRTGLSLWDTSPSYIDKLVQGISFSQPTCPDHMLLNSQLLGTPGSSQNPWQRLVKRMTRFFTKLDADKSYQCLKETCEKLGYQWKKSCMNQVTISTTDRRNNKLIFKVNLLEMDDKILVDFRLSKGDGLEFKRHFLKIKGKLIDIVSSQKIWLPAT

[42] = molecular target: PLK1 (human) (UniProt P53350)

PRKCZ (human), sequence (Q05513 whole entry, looked up): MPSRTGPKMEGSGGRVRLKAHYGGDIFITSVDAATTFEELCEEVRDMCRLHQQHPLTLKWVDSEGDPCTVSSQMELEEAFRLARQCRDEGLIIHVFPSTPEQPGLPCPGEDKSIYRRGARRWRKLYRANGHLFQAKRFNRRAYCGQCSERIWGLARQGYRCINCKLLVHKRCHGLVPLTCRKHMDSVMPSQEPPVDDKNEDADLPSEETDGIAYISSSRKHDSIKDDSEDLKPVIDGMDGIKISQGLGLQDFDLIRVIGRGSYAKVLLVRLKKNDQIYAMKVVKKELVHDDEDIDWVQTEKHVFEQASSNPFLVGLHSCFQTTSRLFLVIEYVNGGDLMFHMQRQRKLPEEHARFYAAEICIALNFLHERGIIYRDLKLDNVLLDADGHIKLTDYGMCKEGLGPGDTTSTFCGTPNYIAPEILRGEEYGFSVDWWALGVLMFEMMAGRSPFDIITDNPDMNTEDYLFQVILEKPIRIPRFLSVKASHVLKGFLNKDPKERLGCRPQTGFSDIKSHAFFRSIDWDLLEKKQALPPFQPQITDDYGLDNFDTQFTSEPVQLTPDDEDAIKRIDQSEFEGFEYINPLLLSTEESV

In the case of O=C(CCCc1ccc(-c2ccccc2F)cc1)Nc1ccc(O)cc1, the residual activity [1] is reported as 100%, the residual activity [2] is reported as 93.5% and the residual activity [3] is reported as 116%. It also gave a residual activity [4] of 100%, a residual activity [5] of 103% and a residual activity [6] of 103%. The residual activity [7] was 132%, the residual activity [8] was 91.4% and the residual activity [9] was 91.9%. For the same compound, the residual activity [10] was 90.8%, the residual activity [11] was 101% and the residual activity [12] was 100%. It also gave a residual activity [13] of 98.8%, a residual activity [14] of 94.7% and a residual activity [15] of 96.3%. It also gave a residual activity [16] of 104%, a residual activity [17] of 96.8% and a residual activity [18] of 99.6%. For the same compound, the residual activity [19] was 104%, the residual activity [20] was 117% and the residual activity [21] was 103%. The residual activity [22] was 108%, the residual activity [23] was 98.2% and the residual activity [24] was 96.1%. For the same compound, the residual activity [25] was 110%, the residual activity [26] was 84% and the residual activity [27] was 103%. For the same compound, the residual activity [28] was 93.1%, the residual activity [29] was 106% and the residual activity [30] was 102%. The residual activity [31] was 102% and 87.7%, the residual activity [32] was 91.5% and the residual activity [33] was 100%. It also gave a residual activity [34] of 89.4%, a residual activity [35] of 103% and a residual activity [36] of 102%. For the same compound, the residual activity [37] was 108%, the residual activity [38] was 114% and the residual activity [39] was 86.6%. The residual activity [40] was 109%, the residual activity [41] was 98.8% and the residual activity [42] was 95.5%.
O=C(O)/C=C/c1cc(Br)c(Br)c(Br)c1Br was tested, and the residual activity [1] was 101%, the residual activity [2] was 99.9% and the residual activity [3] was 89.2%. The residual activity [4] was 85.4%, the residual activity [5] was 86.8% and the residual activity [6] was 103%. The residual activity [7] was 110%, the residual activity [8] was 72.6% and the residual activity [9] was 89.4%. The residual activity [10] was 96.2%, the residual activity [11] was 98.5% and the residual activity [12] was 92.3%. For the same compound, the residual activity [13] was 93.3%, the residual activity [14] was 97.9% and the residual activity [15] was 90.6%. The residual activity [16] was 77.2%, the residual activity [17] was 101% and the residual activity [18] was 103%. For the same compound, the residual activity [19] was 100%, the residual activity [20] was 94.6% and the residual activity [21] was 98.5%. For the same compound, the residual activity [22] was 105%, the residual activity [23] was 91.4% and the residual activity [24] was 94.8%. It also gave a residual activity [25] of 96.9%, a residual activity [26] of 83.7% and a residual activity [27] of 102%. It also gave a residual activity [28] of 87.5%, a residual activity [29] of 93% and a residual activity [30] of 107%. The residual activity [31] was 102% and 99.3%, the residual activity [32] was 82.1% and the residual activity [33] was 79%. The residual activity [34] was 13.1%, the residual activity [35] was 94.9% and the residual activity [36] was 84.7%. The residual activity [37] was 79.1%, the residual activity [38] was 84.5% and the residual activity [39] was 79.6%. It also gave a residual activity [40] of 105%, a residual activity [41] of 135% and a residual activity [42] of 68.7%.
